Values of other authors in US20060264388A1, “Method for treating liver cancer by intrahepatic administration of nemorubicin” (priority 2003, published 2006).
Where a name gives a salt, the structure may show the parent alone.

Tested on: metastatic colorectal cancer
Conditions: after failure of 5-FU leucovorin; cited from earlier work

## CCc1c2c(nc3ccc(OC(=O)N4CCC(N5CCCCC5)CC4)cc13)-c1cc3c(c(=O)n1C2)COC(=O)[C@]3(O)CC [Irinotecan hydrochloride trihydrate]
  median survival time: approximately 9 months
  response rate: 15%
